From the supplement of paper PMC10307832

How the values were obtained:
Assay in all cases: relative viability (nuclei count vs DMSO), 5 days (fraction); higher = more cells survive
Ibrutinib + Navitoclax = compound: C=CC(=O)N1CCC[C@@H](n2nc(-c3ccc(Oc4ccccc4)cc3)c3c(N)ncnc32)C1 [Ibrutinib] + CC1(C)CCC(c2ccc(Cl)cc2)=C(CN2CCN(c3ccc(C(=O)NS(=O)(=O)c4ccc(N[C@H](CCN5CCOCC5)CSc5ccccc5)c(S(=O)(=O)C(F)(F)F)c4)cc3)CC2)C1 [Navitoclax] (partner 0.5 µM)
Method in brief: (§1)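 Dosing by pin tool came one day after lung cancer cell lines were seeded in 1536-well plates, using either one drug or a fixed anchor-drug dose plus five library-drug doses (not always all listed) in √10 steps. After 5 days, nuclei were counted on 4× images. Relative viability is treated-well nuclei count divided by vehicle-well nuclei count, and values are medians of duplicate plates.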

Ibrutinib + Alpelisib = compound: C=CC(=O)N1CCC[C@@H](n2nc(-c3ccc(Oc4ccccc4)cc3)c3c(N)ncnc32)C1 [Ibrutinib] + Cc1nc(NC(=O)N2CCC[C@H]2C(N)=O)sc1-c1ccnc(C(C)(C)C(F)(F)F)c1 [Alpelisib] (partner 2 µM)
Method in brief: as §1

BMX-IN-1 + Vorinostat = compound: C=CC(=O)Nc1cc(-n2c(=O)ccc3cnc4ccc(-c5ccc(NS(C)(=O)=O)cc5)cc4c32)ccc1C [BMX-IN-1] + O=C(CCCCCCC(=O)Nc1ccccc1)NO [Vorinostat] (partner 1 µM)
Method in brief: as §1

BMX-IN-1 + Olaparib = compound: C=CC(=O)Nc1cc(-n2c(=O)ccc3cnc4ccc(-c5ccc(NS(C)(=O)=O)cc5)cc4c32)ccc1C [BMX-IN-1] + O=C(c1cc(Cc2n[nH]c(=O)c3ccccc23)ccc1F)N1CCN(C(=O)C2CC2)CC1 [Olaparib] (partner 8 µM)
Method in brief: as §1

| Cell Line | relative viability (Ibrutinib + Navitoclax; first compound 0.005 µM) | relative viability (Ibrutinib + Navitoclax; first compound 0.01581 µM) | relative viability (Ibrutinib + Navitoclax; first compound 0.05 µM) | relative viability (Ibrutinib + Navitoclax; first compound 0.5 µM) | relative viability (Ibrutinib + Alpelisib; first compound 0.005 µM) | relative viability (Ibrutinib + Alpelisib; first compound 0.01581 µM) | relative viability (Ibrutinib + Alpelisib; first compound 0.05 µM) | relative viability (Ibrutinib + Alpelisib; first compound 0.5 µM) | relative viability (BMX-IN-1 + Vorinostat; first compound 0.02 µM) | relative viability (BMX-IN-1 + Vorinostat; first compound 0.2 µM) | relative viability (BMX-IN-1 + Vorinostat; first compound 0.6325 µM) | relative viability (BMX-IN-1 + Vorinostat; first compound 2 µM) | relative viability (BMX-IN-1 + Olaparib; first compound 0.02 µM) | relative viability (BMX-IN-1 + Olaparib; first compound 0.2 µM) | relative viability (BMX-IN-1 + Olaparib; first compound 0.6325 µM) | relative viability (BMX-IN-1 + Olaparib; first compound 2 µM) | relative viability (Ibrutinib + Navitoclax; first compound 0.1581 µM) | relative viability (Ibrutinib + Alpelisib; first compound 0.1581 µM) |
| --- | --- | --- | --- | --- | --- | --- | --- | --- | --- | --- | --- | --- | --- | --- | --- | --- | --- | --- |
| NCI-H2405 | 0.923 | 0.812 | 0.731 | 0.98 | 0.706 | 0.713 | 0.83 | 0.706 | 1.05 | 1.13 | 1.16 | 0.955 | 0.958 | 0.958 | 0.977 | 0.865 |  |  |
| EBC-1 | 0.441 | 0.433 | 0.516 | 0.388 | 0.852 | 0.856 | 0.79 | 0.895 |  |  |  |  | 0.734 | 0.689 | 0.779 | 0.762 | 0.349 | 0.936 |
| NCI-H1734 | 0.839 | 0.821 | 0.794 | 0.726 | 0.557 | 0.583 | 0.705 | 0.654 | 0.81 | 0.927 | 0.866 | 0.902 | 0.645 | 0.683 | 0.689 | 0.604 | 0.869 | 0.669 |
| NCI-H2087 | 1.05 | 0.952 | 1.12 | 0.939 | 1.09 |  | 1.19 | 1.19 | 0.66 | 1.12 | 0.837 | 0.575 | 0.627 | 0.62 | 0.556 | 0.643 | 1 |  |
| NCI-H1563 |  |  |  |  | 1 | 0.883 | 0.882 | 0.946 |  |  |  |  |  |  |  |  |  | 1.09 |
| SW 900 |  |  |  |  |  |  |  |  | 0.659 | 0.548 | 0.678 | 0.47 | 1.15 | 0.938 | 0.819 | 0.782 |  |  |
| A549 | 1.26 | 1.2 | 1.23 | 1.19 | 0.624 | 0.681 | 0.634 | 0.761 |  |  |  |  | 0.286 | 0.392 | 0.249 | 0.306 | 1.3 | 0.854 |
| NCI-H1793 |  | 0.282 | 0.603 | 0.343 |  | 0.635 | 0.605 | 0.575 | 0.998 | 0.563 | 0.856 | 0.849 | 1.1 | 1.01 | 1.05 | 0.92 | 0.498 | 0.587 |
| EKVX | 0.868 | 0.96 | 0.915 | 0.485 |  | 0.776 | 0.829 | 0.562 | 0.668 | 0.653 | 0.957 | 0.698 | 0.99 | 0.993 | 0.971 | 0.828 | 0.806 | 0.799 |
| NCI-H2126 |  | 0.803 | 0.801 | 0.588 |  | 0.7 | 0.769 | 0.606 | 0.829 | 0.697 | 0.864 | 0.786 | 0.979 | 0.897 | 1.03 | 0.875 | 0.861 | 0.763 |
